Source: patent publication US4168206A, “Impregnated disk method for testing antifungal susceptibility” (Philadelphia College of Osteopathic Medicine, priority 1977, dated 1979)
Converted amounts (≈) assume the structure as drawn. Like-named read-outs stand apart in the source and are kept apart here.

Columns and labels:
Type in all cases: cell-based
[1] = tested on: Candida albicans; assay: MIC by impregnated disk method, Candida albicans; settings: Candida albicans
Experimental: (§1) Stock solutions of the antifungal agents to be tested are preferably prepared by diluting the antifungal agents in the proper nutrient medium. It is presently preferred to prepare dilutions in 10 ml of the proper medium to give the following final concentrations when applied to the disks (all quantities in micrograms per milliliter): 0.05, 0.08, 0.09, 0.1; 0.1 increment increases to 0.9, 1.0; 0.5 increment increases to 10.0; and 12.0, 14.0, 20.0, 25.0 and 50.0. Disks have been prepared by placing 0.05 ml of the above dilutions of antifungal agent containing medium on 6.5 mm diameter disks in 0.01 or 0.02 ml increments. The impregnated disks are then allowed to dry at a temperature preferably below about 10° C. […] The disks may also be dried by a lyophilization or freeze drying process.
(§2) To perform the tests in accordance with the present inventions, disks impregnated with various concentrations of antifungal agent and nutrient medium and a control disk impregnated only with the corresponding nutrient medium are placed on the fungus to be tested which has been applied to the non-nutrient medium. The disks are the inoculated non-nutrient medium are then incubated at a suitable temperature for a sufficient time to promote growth of the fungus. Any temperature is suitable if it will promote growth of the fungus without adversely affecting the fungus or the activity of the antifungal agent or agents tested. The time of incubation can be determined by observing the extent of growth around the control disk. […] The zones of growth or inhibition around the disks were read at 6, 12, 24, 36 and 48 hours after the disks were placed on the tested fungus.
(§3) The minimum inhibitory concentration is defined as the lowest concentration of antifungal agent which inhibits visible growth. The disks containing concentrations of antifungal agents below the minimum inhibitory concentration show circumscribed growth of the fungus around the disk. Disks containing concentrations of antifungal agent at or above the minimum inhibitory concentration show no circumscribed growth.
(§4) Clinical isolates of various fungi listed in Table 1 were obtained from different patients diagnosed as having fungal infections. The fungal inocula were prepared by using a 24-48 hour cultures grown in yeast nitrogen base containing 1% glucose and 0.15% asparagine. After centrifuging, the supernatant was removed, the sedimented cells were washed twice with sterile distilled water and a cell suspension was adjusted to 80% transmission at 520 nm using a Beckman DB-GT grating spectrophotometer.
(§5) Sterile liquified 2% purified agar was placed in petri dishes and allowed to harden. The surface of the agar was inoculated with a sterile cotton swab saturated with a suspension of an organism. The uniformly swabbed plates were then allowed to dry.
(§6) Disks were prepared using the dilutions described above for amphotericin B, nystatin and 5-fluorocytosine. 0.05 ml of the dilutions of each antifungal agent diluted with the appropriate nutrient medium were pipetted on 6.5 mm diameter disks. The disks were dried at 4° C. after each application. Control disks were also prepared.
(§7) Several test disks and a control disk were placed in each petri dish containing the inoculated agar. The disks and petri dishes were then incubated at 29° C. and the minimum inhibitory concentration of the various concentrations of the antifungal agents were read at 6, 12, 24, 36 and 48 hours.
(§8) In 10 duplicate runs with each strain tested, the variation in minimum inhibitory concentration averaged ±0.05 μg/ml.

[2] = tested on: Torulopsis glabrata; assay: MIC by broth dilution method, Torulopsis glabrata; settings: Nakaseomyces glabratus, read-out: Minimum Inhibitory Concentration, Broth
Text: (§9) The preparation of the nutrient media, the antifungal agents and the fungi to be tested in the present invention are similar to those reported in S. Shadomy and A. Espinel-Ingroff, "Susceptibility Testing Of Antifungal Agents", Ch. 63, pp. 569-574 in E. H. Lennett, E. H. Spaulding, and J. P. Truant, Eds., Manual Of Clinical Microbiology, 2nd Ed., American Society for Microbiology, Washington, D.C. (1974). This publication describes the susceptibility testing of antifungal agents, namely, amphotericin B, nystatin and 5-fluoro-cytosine (5-FC), by the "broth dilution method" and the "semisolid agar dilution method". At pages 570-571, it is stated:
as §8
(§10) *Broth dilution method conducted in accordance with S. Shadomy and E.
(§11) Espinel-Ingroff, "Susceptibility Testing of Antifungal Agents", Ch. 63,
(§12) pp. 569-574 in E. H. Spaulding and J. P. Truant, Eds., Manual Of Clinical
(§13) Microbiology, 2nd Ed., American Society for Microbiology, Washington, […]

[3] = tested on: Torulopsis glabrata; assay: MIC by impregnated disk method, Torulopsis glabrata; settings: Nakaseomyces glabratus, read-out: Minimum Inhibitory Concentration, Disk
Experimental: as §1, §2
The minimum inhibitory concentration is defined as the lowest concentration of antifungal agent which inhibits visible growth. […]
Several test disks and a control disk were placed in each petri dish containing the inoculated agar. The disks and petri dishes were then incubated at 29° C. and the minimum inhibitory concentration of the various concentrations of the antifungal agents were read at 6, 12, 24, 36 and 48 hours. […]

[4] = tested on: Candida albicans; assay: MIC by broth dilution method, Candida albicans; settings: Candida albicans
Text: as §9, §8, §10, §11, §12, §13

[5] = tested on: Candida albicans; assay: Minimum fungicidal concentration by broth dilution method
Text: as §9
The minimal fungicidal concentrations of amphotericin B for the first 6 isolates of Candida albicans listed in Table 1 were determined by incubating the disks and organisms for 48 hours. At concentrations below the minimum fungicidal concentration, overgrowth occurred by 48 hours.

[6] = tested on: Candida tropicalis; assay: Susceptibility to combination of antifungal agents on disks (Example 3)
Text: (§14) The method of the present invention also may be used to test combinations of antifungal agents. In this method, more than one antifungal agent of known concentration is impregnated in each test disk.
(§15) Each disk is impregnated with a particular known concentration of at least one particular antifungal agent, except for the control disks. When the susceptibility of a fungus to combinations of antifungal agents is being tested, more than one antifungal agent is impregnated in each test disk.
(§16) The susceptibility of two other isolates to combinations of antifungal agents were tested by combining more than one antifungal agent on each test disk. A series of test disks were prepared containing various combinations of antifungal agents in various concentrations and were used in the method of the present invention. The results of this procedure are summarized in the following specific, non-limiting examples:
An isolate of Candida tropicalis was initially tested for amphotericin B susceptibility of 0.5 μg/ml. When a combination of amphotericin B and tetracycline were combined on the disks used in the testing procedure according to the present invention, effective inhibition of the isolate occurred using 0.05 μg/ml of amphotericin B and 0.2 μg/ml of tetracycline.

[7] = tested on: Candida albicans; assay: Susceptibility to combination of antifungal agents on disks (Example 2); settings: Candida albicans isolate
Text: as §14, §15, §16
This is a significant reduction in amphotericin B.

[8] = tested on: Saccharomyces cerevisiae; assay: MIC by impregnated disk method, Saccharomyces cerevisiae; settings: Saccharomyces cerevisiae
Experimental: as §1, §2, §3, §4, §5, §6, §7, §8

Compound `C[C@@H]1[C@H](O)[C@@H](C)/C=C/C=C/C=C/C=C/C=C/C=C/C=C/[C@H](O[C@@H]2O[C@H](C)[C@@H](O)[C@H](N)[C@@H]2O)C[C@@H]2O[C@](O)(C[C@@H](O)C[C@@H](O)[C@H](O)CC[C@@H](O)C[C@@H](O)CC(=O)O[C@H]1C)C[C@H](O)[C@H]2C(=O)O` [Amphotericin B, amphotericin B] has an MIC ([1]; isolate 1, read-out: Minimum Inhibitory Concentration, Disk) of 0.3 µg/mL (≈ 0.325 µM), an MIC ([1]; isolate 2, read-out: Minimum Inhibitory Concentration, Disk) of 0.6 µg/mL (≈ 0.649 µM) and an MIC ([1]; isolate 3, read-out: Minimum Inhibitory Concentration, Disk) of 0.08 µg/mL (≈ 0.0866 µM). It also gave an MIC ([1]; isolate 4, read-out: Minimum Inhibitory Concentration, Disk) of 0.6 µg/mL (≈ 0.649 µM), an MIC ([1]; isolate 5, read-out: Minimum Inhibitory Concentration, Disk) of 0.9 µg/mL (≈ 0.974 µM) and an MIC ([1]; isolate 6, read-out: Minimum Inhibitory Concentration, Disk) of 1 µg/mL (≈ 1.08 µM). The MIC [2] was 0.3 µg/mL (≈ 0.325 µM), the MIC [3] was 0.2 µg/mL (≈ 0.216 µM) and the MIC ([4]; isolate 1, read-out: Minimum Inhibitory Concentration, Broth) was 0.4 µg/mL (≈ 0.433 µM). It also gave an MIC ([4]; isolate 2, read-out: Minimum Inhibitory Concentration, Broth) of 0.7 µg/mL (≈ 0.758 µM), an MIC ([4]; isolate 3, read-out: Minimum Inhibitory Concentration, Broth) of 0.1 µg/mL (≈ 0.108 µM) and an MIC ([4]; isolate 4, read-out: Minimum Inhibitory Concentration, Broth) of 0.6 µg/mL (≈ 0.649 µM). It also gave an MIC ([4]; isolate 5, read-out: Minimum Inhibitory Concentration, Broth) of 0.8 µg/mL (≈ 0.866 µM), an MIC ([4]; isolate 6, read-out: Minimum Inhibitory Concentration, Broth) of 1.5 µg/mL (≈ 1.62 µM) and an MFC ([5]; isolate 1) of 1.5 µg/mL (≈ 1.62 µM). For the same compound, the MFC ([5]; isolate 2) was 1.6 µg/mL (≈ 1.73 µM), the MFC ([5]; isolate 3) was 0.8 µg/mL (≈ 0.866 µM) and the MFC ([5]; isolate 4) was 1.1 µg/mL (≈ 1.19 µM). It also gave an MFC ([5]; isolate 5) of 1.6 µg/mL (≈ 1.73 µM), an MFC ([5]; isolate 6) of 6.5 µg/mL (≈ 7.03 µM) and an MIC ([6]; Candida tropicalis isolate, alone, initially tested, read-out: amphotericin B susceptibility) of 0.5 µg/mL. For the same compound, the “effective inhibition of the isolate, concentration of amphotericin B” value ([6]; in combination with tetracycline 0.2 μg/ml) was 0.05 µg/mL, the “amphotericin B susceptibility” value ([7]; alone, previously tested) was 0.8 µg/mL and the “amphotericin B susceptibility” value ([7]; in combination with tetracycline) was 0.2 µg/mL. The MIC ([8]; read-out: Minimum Inhibitory Concentration, Disk, S. cerevisiae isolate 2) was 0.6 µg/mL (≈ 0.649 µM) and the MIC ([8]; read-out: Minimum Inhibitory Concentration, Disk, Saccharomyces cerevisiae isolate 1) was 0.4 µg/mL (≈ 0.433 µM).
